Measured values: publication PMC8617627, “Novel DYRK1A Inhibitor Rescues Learning and Memory Deficits in a Mouse Model of Down Syndrome” (Pharmaceuticals, 2021)
Like-named read-outs stand apart in the source and are kept apart here.

Legend:
Experiment in all cases: Kinase profile (33P ATP filter binding)
Assay type in all cases: biochemical
[1] = biological target: JAK2 (Homo sapiens, UniProt O60674)
[2] = biological target: TTBK1 (Homo sapiens, UniProt Q5TCY1); conditions: read-out: Remaining protein kinase activity
[3] = biological target: MAPKAP-K2 (Homo sapiens, UniProt P49137); conditions: read-out: Remaining protein kinase activity
[4] = biological target: T1, Aurora A (Homo sapiens, UniProt O14965); conditions: for remaining activity at 1 µM / remaining activity at 100 µM: read-out: Remaining protein kinase activity
T1 sequence (O14965 1-403): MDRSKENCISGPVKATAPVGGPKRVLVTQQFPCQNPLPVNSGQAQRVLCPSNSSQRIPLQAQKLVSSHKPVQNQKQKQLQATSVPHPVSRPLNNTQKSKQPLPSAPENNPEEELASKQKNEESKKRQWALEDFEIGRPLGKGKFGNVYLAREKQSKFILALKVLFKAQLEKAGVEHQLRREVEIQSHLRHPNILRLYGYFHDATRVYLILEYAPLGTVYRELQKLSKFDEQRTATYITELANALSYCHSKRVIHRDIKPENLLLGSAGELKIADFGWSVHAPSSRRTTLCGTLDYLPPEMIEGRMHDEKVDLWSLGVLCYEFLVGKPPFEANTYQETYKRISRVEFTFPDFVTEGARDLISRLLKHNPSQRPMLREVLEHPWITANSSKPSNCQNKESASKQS

[5] = biological target: TrkA (Homo sapiens, UniProt P04629); conditions: read-out: Remaining protein kinase activity
[6] = biological target: T2, ZAP70 (Homo sapiens, UniProt P43403); conditions: read-out: Remaining protein kinase activity
T2 sequence (P43403 1-619): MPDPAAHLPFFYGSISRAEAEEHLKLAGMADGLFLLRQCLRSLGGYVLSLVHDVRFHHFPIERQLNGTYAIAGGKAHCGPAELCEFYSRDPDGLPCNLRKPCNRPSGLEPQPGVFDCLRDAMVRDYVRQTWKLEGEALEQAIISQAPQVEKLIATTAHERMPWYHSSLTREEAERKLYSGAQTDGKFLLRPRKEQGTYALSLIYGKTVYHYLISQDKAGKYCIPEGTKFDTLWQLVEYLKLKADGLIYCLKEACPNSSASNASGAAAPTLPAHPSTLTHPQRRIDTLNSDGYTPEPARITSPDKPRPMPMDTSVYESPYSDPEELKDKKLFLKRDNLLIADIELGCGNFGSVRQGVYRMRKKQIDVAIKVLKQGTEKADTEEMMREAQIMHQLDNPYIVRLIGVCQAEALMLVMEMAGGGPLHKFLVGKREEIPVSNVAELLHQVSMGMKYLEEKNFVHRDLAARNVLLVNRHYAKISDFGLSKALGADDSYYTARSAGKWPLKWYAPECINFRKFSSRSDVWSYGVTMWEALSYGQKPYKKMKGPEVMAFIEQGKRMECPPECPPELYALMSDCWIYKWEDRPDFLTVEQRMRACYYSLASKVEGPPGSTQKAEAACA

[7] = biological target: JNK3 (Homo sapiens, UniProt P53779)
[8] = biological target: MELK (Homo sapiens, UniProt Q14680); conditions: read-out: Remaining protein kinase activity
[9] = biological target: T3, MKK6 (Homo sapiens, UniProt P52564); conditions: read-out: Remaining protein kinase activity
T3 sequence (P52564 1-334): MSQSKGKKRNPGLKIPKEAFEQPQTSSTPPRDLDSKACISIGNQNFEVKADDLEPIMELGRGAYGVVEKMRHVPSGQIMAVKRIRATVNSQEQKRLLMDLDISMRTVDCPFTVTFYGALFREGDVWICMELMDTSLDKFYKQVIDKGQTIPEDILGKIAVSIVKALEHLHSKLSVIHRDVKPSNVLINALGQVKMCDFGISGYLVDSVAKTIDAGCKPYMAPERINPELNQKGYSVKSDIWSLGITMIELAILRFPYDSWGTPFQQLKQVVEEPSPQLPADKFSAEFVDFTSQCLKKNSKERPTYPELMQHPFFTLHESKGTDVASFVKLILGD

[10] = biological target: IRR (Homo sapiens, UniProt P14616); conditions: read-out: Remaining protein kinase activity
[11] = biological target: SYK (Homo sapiens, UniProt P43405)
[12] = biological target: HER4 (Homo sapiens, UniProt Q15303); conditions: read-out: Remaining protein kinase activity
[13] = biological target: PIM3 (Homo sapiens, UniProt Q86V86); conditions: read-out: Remaining protein kinase activity
[14] = biological target: RSK1 (Homo sapiens, UniProt Q15418); conditions: read-out: Remaining protein kinase activity
[15] = biological target: IR (Homo sapiens, UniProt P06213); conditions: read-out: Remaining protein kinase activity
[16] = test system: PHK

Chain of JNK3 (P53779 whole entry, species assumed): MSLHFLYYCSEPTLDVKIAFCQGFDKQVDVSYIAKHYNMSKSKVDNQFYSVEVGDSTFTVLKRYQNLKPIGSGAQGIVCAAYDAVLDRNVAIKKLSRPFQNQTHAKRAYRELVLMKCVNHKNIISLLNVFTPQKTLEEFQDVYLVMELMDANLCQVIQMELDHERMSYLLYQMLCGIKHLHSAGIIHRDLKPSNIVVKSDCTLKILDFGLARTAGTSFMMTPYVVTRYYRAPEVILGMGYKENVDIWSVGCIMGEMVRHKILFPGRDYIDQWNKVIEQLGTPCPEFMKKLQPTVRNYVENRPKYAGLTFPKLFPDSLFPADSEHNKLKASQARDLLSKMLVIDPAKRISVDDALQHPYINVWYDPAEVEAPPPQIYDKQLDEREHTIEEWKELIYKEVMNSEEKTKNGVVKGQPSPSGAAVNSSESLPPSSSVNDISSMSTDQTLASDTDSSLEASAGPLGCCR
Chain of TrkA (P04629 33-796): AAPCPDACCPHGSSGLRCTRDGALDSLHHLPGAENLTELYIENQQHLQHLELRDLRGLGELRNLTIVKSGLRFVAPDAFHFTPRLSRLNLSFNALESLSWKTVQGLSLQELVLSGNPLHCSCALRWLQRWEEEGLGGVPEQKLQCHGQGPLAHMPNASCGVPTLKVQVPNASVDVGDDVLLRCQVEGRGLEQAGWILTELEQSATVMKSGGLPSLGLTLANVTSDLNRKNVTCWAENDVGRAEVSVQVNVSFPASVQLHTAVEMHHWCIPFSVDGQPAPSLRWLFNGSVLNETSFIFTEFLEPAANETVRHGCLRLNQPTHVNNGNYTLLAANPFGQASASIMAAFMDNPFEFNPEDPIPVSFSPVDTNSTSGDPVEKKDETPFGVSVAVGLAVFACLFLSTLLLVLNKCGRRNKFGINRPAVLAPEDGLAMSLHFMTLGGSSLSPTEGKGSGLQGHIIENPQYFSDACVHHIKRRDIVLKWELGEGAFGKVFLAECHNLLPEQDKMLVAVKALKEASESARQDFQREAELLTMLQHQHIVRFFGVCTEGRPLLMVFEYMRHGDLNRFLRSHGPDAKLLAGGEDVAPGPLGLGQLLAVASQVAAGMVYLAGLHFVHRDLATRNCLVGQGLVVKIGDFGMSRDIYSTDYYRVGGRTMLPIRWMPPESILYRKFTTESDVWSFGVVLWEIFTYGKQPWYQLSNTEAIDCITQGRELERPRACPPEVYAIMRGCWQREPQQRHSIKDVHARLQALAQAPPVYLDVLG
Chain of JAK2 (O60674 whole entry): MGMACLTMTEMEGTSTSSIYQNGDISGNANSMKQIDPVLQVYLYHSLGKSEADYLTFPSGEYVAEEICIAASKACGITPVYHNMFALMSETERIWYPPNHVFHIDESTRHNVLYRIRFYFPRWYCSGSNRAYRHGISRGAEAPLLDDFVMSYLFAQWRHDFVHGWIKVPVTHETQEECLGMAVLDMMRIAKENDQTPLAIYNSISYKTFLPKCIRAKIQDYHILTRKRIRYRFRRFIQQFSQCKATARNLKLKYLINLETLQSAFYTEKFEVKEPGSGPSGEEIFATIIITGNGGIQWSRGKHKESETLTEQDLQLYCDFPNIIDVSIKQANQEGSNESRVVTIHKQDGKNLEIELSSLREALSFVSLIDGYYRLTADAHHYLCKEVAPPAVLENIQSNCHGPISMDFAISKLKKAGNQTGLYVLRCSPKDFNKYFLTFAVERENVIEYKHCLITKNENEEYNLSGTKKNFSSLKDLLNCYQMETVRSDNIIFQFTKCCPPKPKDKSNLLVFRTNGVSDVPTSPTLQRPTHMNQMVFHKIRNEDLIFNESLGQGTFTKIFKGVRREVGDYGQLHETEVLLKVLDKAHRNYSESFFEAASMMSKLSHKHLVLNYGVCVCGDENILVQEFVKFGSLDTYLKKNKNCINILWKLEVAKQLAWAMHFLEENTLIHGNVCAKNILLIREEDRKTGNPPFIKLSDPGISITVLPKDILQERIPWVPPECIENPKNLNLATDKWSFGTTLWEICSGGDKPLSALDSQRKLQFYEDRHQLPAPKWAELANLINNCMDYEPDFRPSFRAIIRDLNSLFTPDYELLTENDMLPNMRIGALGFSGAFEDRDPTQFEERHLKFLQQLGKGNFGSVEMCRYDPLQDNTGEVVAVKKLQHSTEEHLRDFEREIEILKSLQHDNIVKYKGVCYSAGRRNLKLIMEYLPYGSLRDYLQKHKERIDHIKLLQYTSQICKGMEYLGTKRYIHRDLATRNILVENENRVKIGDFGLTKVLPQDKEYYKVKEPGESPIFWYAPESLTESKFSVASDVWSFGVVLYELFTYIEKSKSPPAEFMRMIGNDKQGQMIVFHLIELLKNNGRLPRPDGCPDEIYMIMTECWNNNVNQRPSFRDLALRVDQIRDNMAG
Chain of HER4 (Q15303 26-1308): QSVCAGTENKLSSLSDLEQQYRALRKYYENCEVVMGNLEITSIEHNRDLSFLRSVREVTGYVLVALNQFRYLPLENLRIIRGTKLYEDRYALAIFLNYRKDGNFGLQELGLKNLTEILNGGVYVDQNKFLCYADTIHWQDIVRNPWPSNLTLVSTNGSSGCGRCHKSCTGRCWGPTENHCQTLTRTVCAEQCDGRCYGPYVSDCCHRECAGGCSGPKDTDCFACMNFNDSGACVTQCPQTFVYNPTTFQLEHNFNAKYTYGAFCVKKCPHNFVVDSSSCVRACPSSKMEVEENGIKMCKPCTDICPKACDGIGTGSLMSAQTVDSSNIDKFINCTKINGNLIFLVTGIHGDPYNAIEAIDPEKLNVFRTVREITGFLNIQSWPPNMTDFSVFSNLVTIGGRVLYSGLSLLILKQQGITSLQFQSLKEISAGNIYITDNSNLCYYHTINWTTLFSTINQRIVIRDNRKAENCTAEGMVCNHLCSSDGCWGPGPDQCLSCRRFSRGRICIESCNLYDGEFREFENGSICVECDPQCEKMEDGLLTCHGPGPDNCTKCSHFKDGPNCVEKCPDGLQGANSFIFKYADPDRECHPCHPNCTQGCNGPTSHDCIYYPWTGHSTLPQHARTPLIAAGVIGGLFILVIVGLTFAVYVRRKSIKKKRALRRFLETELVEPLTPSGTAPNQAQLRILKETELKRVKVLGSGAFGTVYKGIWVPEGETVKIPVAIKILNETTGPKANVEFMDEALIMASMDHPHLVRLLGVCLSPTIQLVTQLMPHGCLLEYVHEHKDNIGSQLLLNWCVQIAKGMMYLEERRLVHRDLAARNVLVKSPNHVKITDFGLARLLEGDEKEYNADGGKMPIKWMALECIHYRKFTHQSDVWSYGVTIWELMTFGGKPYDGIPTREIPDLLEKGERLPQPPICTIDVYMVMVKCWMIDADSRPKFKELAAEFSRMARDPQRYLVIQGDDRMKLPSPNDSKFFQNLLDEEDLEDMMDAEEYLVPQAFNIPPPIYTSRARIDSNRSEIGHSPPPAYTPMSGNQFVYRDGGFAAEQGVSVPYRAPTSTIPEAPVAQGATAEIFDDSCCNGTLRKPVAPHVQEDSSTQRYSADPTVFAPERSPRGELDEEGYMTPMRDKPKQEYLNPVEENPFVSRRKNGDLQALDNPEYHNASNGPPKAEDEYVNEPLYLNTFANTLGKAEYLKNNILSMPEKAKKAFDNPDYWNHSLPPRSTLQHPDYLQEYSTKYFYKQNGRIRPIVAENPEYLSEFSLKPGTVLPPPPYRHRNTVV
Chain of TTBK1 (Q5TCY1 whole entry): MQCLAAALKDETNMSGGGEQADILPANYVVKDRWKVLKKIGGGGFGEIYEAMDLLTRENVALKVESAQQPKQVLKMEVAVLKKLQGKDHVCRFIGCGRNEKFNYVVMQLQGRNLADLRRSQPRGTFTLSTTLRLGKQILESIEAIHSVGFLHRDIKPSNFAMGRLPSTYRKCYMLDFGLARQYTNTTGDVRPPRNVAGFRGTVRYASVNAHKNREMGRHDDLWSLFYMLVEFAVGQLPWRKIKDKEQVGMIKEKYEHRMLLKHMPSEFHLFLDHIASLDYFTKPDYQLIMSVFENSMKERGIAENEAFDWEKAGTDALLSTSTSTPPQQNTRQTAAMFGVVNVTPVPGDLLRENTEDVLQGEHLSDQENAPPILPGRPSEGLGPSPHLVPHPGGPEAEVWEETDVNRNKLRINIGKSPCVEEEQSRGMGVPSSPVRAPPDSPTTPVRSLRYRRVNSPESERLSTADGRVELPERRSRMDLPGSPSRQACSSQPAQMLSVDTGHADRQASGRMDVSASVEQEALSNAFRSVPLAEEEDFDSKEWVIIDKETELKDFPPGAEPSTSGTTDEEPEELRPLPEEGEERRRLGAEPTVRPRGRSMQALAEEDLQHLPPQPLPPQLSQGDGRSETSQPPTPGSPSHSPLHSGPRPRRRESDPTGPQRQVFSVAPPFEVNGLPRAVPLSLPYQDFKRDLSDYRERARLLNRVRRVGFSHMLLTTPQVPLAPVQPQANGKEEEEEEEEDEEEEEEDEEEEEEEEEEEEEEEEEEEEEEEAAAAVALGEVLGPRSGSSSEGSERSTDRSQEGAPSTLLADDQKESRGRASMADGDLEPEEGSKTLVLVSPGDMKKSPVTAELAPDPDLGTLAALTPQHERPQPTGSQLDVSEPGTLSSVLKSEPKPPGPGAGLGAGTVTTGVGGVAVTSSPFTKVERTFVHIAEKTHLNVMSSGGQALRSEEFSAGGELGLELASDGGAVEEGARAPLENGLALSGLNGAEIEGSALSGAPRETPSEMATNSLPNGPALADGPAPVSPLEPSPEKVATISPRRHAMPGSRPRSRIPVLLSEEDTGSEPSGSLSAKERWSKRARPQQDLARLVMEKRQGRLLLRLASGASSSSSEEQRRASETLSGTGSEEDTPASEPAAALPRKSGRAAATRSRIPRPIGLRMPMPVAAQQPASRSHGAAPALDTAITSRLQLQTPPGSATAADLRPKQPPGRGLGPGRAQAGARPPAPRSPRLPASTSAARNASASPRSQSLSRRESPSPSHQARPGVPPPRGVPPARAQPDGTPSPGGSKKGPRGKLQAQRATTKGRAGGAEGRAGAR

COc1ccc2sc(-c3cncc(NC(C)=O)c3)nc2c1 [PST-001, N-(5-(5-Methoxybenzo[d]thiazol-2-yl)pyridin-3-yl)acetamide]
Remaining protein kinase activity ([1]; 1 μM): 123%
Remaining protein kinase activity ([1]; 100 μM): 125%
remaining activity at 100 µM ([2]; TTBK1): 110%
remaining activity at 1 µM [2]: 109%
remaining activity at 1 µM [3]: 109%
remaining activity at 100 µM [3]: 111%
Effect on Aurora A ([4]; in words): moderately activated
remaining activity at 1 µM [4]: 133%
remaining activity at 100 µM [4]: 136%
remaining activity at 1 µM [5]: 111%
remaining activity at 100 µM [5]: 45%
remaining activity at 1 µM [6]: 123%
remaining activity at 100 µM [6]: 131%
Remaining protein kinase activity ([7]; 1 μM): 127%
Remaining protein kinase activity ([7]; 100 μM): 122%
remaining activity at 1 µM [8]: 99%
remaining activity at 100 µM [8]: 44%
remaining activity at 1 µM [9]: 140%
remaining activity at 100 µM [9]: 115%
remaining activity at 1 µM [10]: 117%
remaining activity at 100 µM [10]: 120%
Remaining protein kinase activity ([11]; 1 μM): 112%
Remaining protein kinase activity ([11]; 100 μM): 58%
remaining activity at 1 µM [12]: 103%
remaining activity at 100 µM [12]: 94%
remaining activity at 1 µM [13]: 93%
remaining activity at 100 µM [13]: 76%
remaining activity at 1 µM [14]: 99%
remaining activity at 100 µM [14]: 88%
remaining activity at 1 µM [15]: 116%
remaining activity at 100 µM [15]: 120%
Remaining protein kinase activity ([16]; 100 μM): 83%

COc1ccc2sc(-c3cncc(N)c3)nc2c1 [compound 1, 5-(5-Methoxybenzo[d]thiazol-2-yl)pyridin-3-amine]
Remaining protein kinase activity ([1]; 1 μM): 117%
Remaining protein kinase activity ([1]; 100 μM): 55%
remaining activity at 1 µM ([2]; TTBK1, 1 μM): 109%
remaining activity at 100 µM ([2]; TTBK1): 90%
remaining activity at 1 µM ([3]; MAPKAP-K2, 1 μM): 122%
remaining activity at 100 µM ([3]; MAPKAP-K2, 100 μM): 66%
remaining activity at 1 µM ([4]; Aurora A, 1 μM): 132%
remaining activity at 100 µM ([4]; Aurora A, 100 μM): 97%
remaining activity at 1 µM ([5]; TrkA, 1 μM): 104%
remaining activity at 100 µM ([5]; TrkA, 100 μM): 33%
remaining activity at 1 µM ([6]; ZAP70, 1 μM): 119%
remaining activity at 100 µM ([6]; ZAP70, 100 μM): 63%
Remaining protein kinase activity ([7]; 1 μM): 125%
Remaining protein kinase activity ([7]; 100 μM): 61%
remaining activity at 1 µM ([8]; MELK, 1 μM): 96%
remaining activity at 100 µM ([8]; MELK, 100 μM): 12%
remaining activity at 1 µM ([9]; MKK6, 1 μM): 120%
remaining activity at 100 µM ([9]; MKK6, 100 μM): 118%
remaining activity at 1 µM ([10]; IRR, 1 μM): 113%
remaining activity at 100 µM ([10]; IRR, 100 μM): 77%
Remaining protein kinase activity ([11]; 1 μM): 113%
Remaining protein kinase activity ([11]; 100 μM): 38%
remaining activity at 1 µM ([12]; HER4, 1 μM): 104%
remaining activity at 100 µM ([12]; HER4, 100 μM): 16%
remaining activity at 1 µM ([13]; PIM3, 1 μM): 90%
remaining activity at 100 µM ([13]; PIM3, 100 μM): 24%
remaining activity at 1 µM ([14]; RSK1, 1 μM): 99%
remaining activity at 100 µM ([14]; RSK1, 100 μM): 42%
remaining activity at 1 µM ([15]; IR, 1 μM): 108%
remaining activity at 100 µM ([15]; IR, 100 μM): 45%
Remaining protein kinase activity ([16]; 1 μM): 101%
Remaining protein kinase activity ([16]; 100 μM): 52%
